# Measured values as given in patent publication US11752175B2, “Compositions and methods for glaucoma” (AUFBAU MEDICAL INNOVATIONS LIMITED, priority 2018, dated 2023).
# Tested on: glaucoma-associated-EV-complex in POAG patient's aqueous humor
# Experiment: Treating POAG aqueous humor samples with bimatoprost, EDC fixation, negative staining and TEM imaging
# Set-up: species or system human
# Text: Methods for treating POAG aqueous humor samples with bimatoprost, and fixation of fluid with EDC, negative staining and TEM imaging. We sought to determine the effect of bimatoprost on EVs in aqueous humor of patients with glaucoma. To do this, we diluted the POAG aqueous humor sample with tris buffered saline (1:10 dilution) and added 1:1 volume of diluted POAG sample with either tris buffered saline (control) or bimatoprost. Lumigan was obtained directly from the dispensing bottle and was NOT diluted. 10 ul of POAG sample was mixed with 10 ul of TBS or 10 ul POAG sample was mixed with 10 ul of undiluted Lumigan. The tubes were then incubated in a thermocycler PCR machine and were allowed to sit for 72 hours at 37° C. The samples were then diluted (1:10). Next, we fixed with EDC on an electron microscopy grid using the following protocol. For 1 mls of EDC/ETT solution in 0.1 M 1-Methylimidazole buffer (pH 8.0). • 1. EDC-HCl powder should be stored at −20° C. under argon. To avoid condensation of humidity, only open bottles after they reached room temperature, i.e. take the bottle out of freezer 1 h before weighing out sample. • 2. EDC/5-ETT solution should be made at most 1 h prior to use. • 3. Pipette 5.76 ml of 0.1 M 1-Methylimidazole buffer (pH 8.0) into a 15 ml tube, vortex vigorously. • 4. Carefully spoon out the 0.078 g of ETT found in the “G” group, onto a piece of paper. Carefully pour the 0.078 g into the tube. • 5. Using the pH paper and pipet to check to be pH 8.0 • 6. Use a weighing paper to measure out 0.12 g of EDC. Carefully pour into the tube. Vortex vigorously. • 7. Discard unused solution. • 8. Using the pH paper and pipet to check to be pH 8.0 Poly L-lysine grids, EDC fixation, Glut-fixation, UA stain. • 1. Use formvar coated grids. • 2. Place them facing formvar side down to poly-lysine drops and let them sit for 5-10 min. • 3. Then you will withdraw the Poly-L-lysine • 4. Fasten down a piece of parchment paper to a 100 mm dish with tape or weight. Place grid down on parchment paper. Mix EDC solution with EVs • 1. Mix 2.5 ul of (Cold) EVs with 5 ul of (Cold) EDC solution in 1.5 ml siliconized tube. • 2. In the cold room, apply 5 μl sample (Aqueous humor) to the grid and wait 15 minutes to dry and for the EVs to settle to the bottom of the grid. • 3. Place in a humidified chamber and incubate at […] for at least 3 hours. Secondary Fixation with Glut • 1. Remove EDC-EV solution from the sample using a pipette. • 2. Fix with Glut, add 2-5 ul of glut fix and wait for 5 min • 3. Remove Glut with Pipet or lens paper Rinse Glut and EDC • 1. Apply water bubble to grid for 5 min • 2. Remove water bubble with pipette • 3. Add 5 ul of uranyl acetate onto grid (1 drop, blotting after the drop) • 4. Let grid dry, and place in grid box • 5. Take off stain with pipette Samples were then imaged with TEM. Treating large EV complexes with Bimatoprost breaks up the EV-complex, when compared to controls. To determine if glaucoma-associated-EV-aggregates visualized using the EDC fixation method were indeed a potential mediator of POAG, we hypothesized that treating it with a known glaucoma medication would change the morphology of the glaucoma-associated-EV-aggregates. Therefore, we opted to use Bimatoprost (lumigan), which is a ocular hypotensive agent that lowers IOP in normal, ocular hypertensive, and glaucomatous eyes. […]
structure (smiles),measurement,setting,value
CCNC(=O)CCC/C=C\C[C@@H]1[C@@H](/C=C/[C@@H](O)CCc2ccccc2)[C@H](O)C[C@@H]1O [bimatoprost],evidence of large extracellular matrix or glaucoma-associated-EV-aggregates in TEM photographs,POAG aqueous humor samples treated with bimatoprost (FIG. 11 c-d),no evidence of large extracellular matrix nor glaucoma-associated-EV-aggregates
same,"number of glaucoma-associated-EV-complex, compared to POAG sample with placebo treatment","POAG patient's aqueous humor, first subject (FIG. 11), undiluted Lumigan 1:1 with 1:10 diluted sample, 37° C. for 72 hours, TEM",substantial reduction
same,"size of POAG-associated EV complexes, compared to untreated glaucoma samples","aqueous humor of a patient with POAG (FIG. 11), TEM",reduces the size
same,"size of POAG-associated EV complexes, compared to control-treated glaucoma samples","aqueous humor of second subject with glaucoma (FIG. 13), TEM",reduces the size
same,"number of glaucoma-associated-EV-complexes, compared to placebo (buffered saline)","second human subject with glaucoma (FIG. 12-13), 37° C. for 72 hours, TEM",substantial reduction
